Measurements from US8067021B2, “Methods and compositions for delivery of growth factor to fibrous connective tissue” (Affinergy, Inc., priority 2007, dated 2011).
Where a SMILES comes first, the peptide text is derived from it. The star is where a group is joined. Biotin = O=C1N[C@H]2[C@H](CS[C@H]2CCCCC(=O)*)N1

Legend:
[1] = test system: various growth factors; test: Further binding studies: preference of binding for various growth factors; details: latter 3 growth factors: no detectable binding
Protocol: Since GDFs are also considered as members of the BMP family of proteins, and therefore share significant amino acid sequence homology, some binding cross-reactivity of peptides according to the presently disclosed subject matter with BMP-5 was noted. […] Further binding studies were performed from which was determined the preference of binding of peptides according to the presently disclosed subject matter for various growth factors. […] Thus peptides according to the presently disclosed subject matter show preferential binding to GDF-7, and show binding affinity for fibrous connective tissue-inducing growth factors.

[2] = target: T1, GDF-7 (Mus musculus, UniProt P43029); test: GDF-7 binding by composition immobilized on polyethylene terephthalate suture; details: 0.5 μM of the conjugate, relative to assay background
T1 construct: purchased R&D SYSTEMS
T1 sequence (P43029 316-461): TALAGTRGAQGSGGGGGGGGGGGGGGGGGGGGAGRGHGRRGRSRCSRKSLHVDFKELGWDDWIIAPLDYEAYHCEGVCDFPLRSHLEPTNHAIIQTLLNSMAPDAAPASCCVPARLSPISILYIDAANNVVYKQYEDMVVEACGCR
Excerpt: Using standard methods for peptide synthesis, amino acid sequences comprising SEQ ID NO:1-3 and SEQ ID NO: 67 were synthesized to contain an amino acid linker sequence (e.g., GSSGK, SEQ ID NO:72) at the C-terminus to which was linked biotin (via the lysine residue). See, for example, SEQ ID NOs: 73-76. Streptavidin (having 4 biotin binding sites) was used in conjunction with the biotin on the biotinylated peptides to form a linker between the two different peptide components. […]
Each of the three representative compositions according to the presently disclosed subject matter or the control conjugate were added individually to respective wells containing a suture and containing GDF-7 in various concentrations (starting at 100 nM final concentration for the compositions; 0.5 μM of the conjugate) with high salt buffer-T, and incubated for 1 hour at room temperature. […] It was determined in these experiments that maximal growth factor binding to the composition occurs within the first several minutes (e.g., within a time period ranging from 5 to 10 minutes), and that no additional GDF-7 appears to be retained to the surface of the implant in a time period of up to 1 hour of contact with the implant.

[3] = Binding of surface-binding peptide to suture material; details: braided polyethylene terephthalate fibers
Excerpt: To illustrate this embodiment, a linker was used to couple a peptide having binding affinity for a surface of an implant with a peptide having binding affinity for fibrous connective tissue-inducing growth factor. […] Similarly, peptides having amino acid sequences of SEQ ID NOs: 1-3 were used individually as representative peptides having binding affinity for fibrous connective tissue-inducing growth factor, and for inclusion as a component in a composition according to the presently disclosed subject matter.

Row | Compound | preference for binding affinity (from highest relative binding affinity to lowest) [1] | also measured
1 | CC[C@H](C)[C@H](NC(=O)[C@H](CCC(=O)O)NC(=O)[C@H](CCCNC(=N)N)NC(=O)[C@@H]1CCCN1C(=O)CNC(=O)[C@H](CO)NC(=O)[C@@H](N)CO)C(=O)N[C@@H](Cc1c[nH]c2ccccc12)C(=O)N[C@@H](CC(=O)O)C(=O)N[C@@H](CO)C(=O)N[C@@H](CC(C)C)C(=O)N[C@H](C(=O)NCC(=O)N[C@H](C(=O)N[C@H](C(=O)N[C@@H](CC(N)=O)C(=O)N1CCC[C@H]1C(=O)NCC(=O)N[C@@H](Cc1c[nH]c2ccccc12)C(=O)N[C@@H](CO)C(=O)N[C@@H](CCCNC(=N)N)C(=O)NCC(=O)N[C@@H](CO)C(=O)N[C@@H](CO)C(=O)NCC(=O)N[C@@H](CCCCNC(=O)CCCC[C@@H]1SC[C@@H]2NC(=O)N[C@@H]21)C(N)=O)C(C)C)C(C)C)C(C)C [SEQ ID NO: 1, ssGPREIWDSLVGVVNPGWsr] (H-SSGPREIWDSLVGVVNPGWSRGSSGK(Biotin)-NH2; N-terminus and C-terminus assumed) | GDF-7>GDF-5, BMP-2>BMP-6>BMP-5>TGF-β1, TGF-β3, or PDGF-BB | –
2 | peptide conjugate: negative control: biotinylated surface-binding peptide bound to streptavidin, without peptide having binding affinity for growth factor | – | binding for GDF-7 on suture [2]: no appreciable binding
3 | SWWGFWNGSAAPVWSR [SEQ ID NO: 67] | – | binding affinity for suture material [3]: showed binding affinity
4 | CSCC[C@H](NC(=O)CNC(=O)[C@H](CCC(=O)O)NC(=O)[C@H](Cc1c[nH]c2ccccc12)NC(=O)[C@H](CO)NC(=O)[C@H](CCCNC(=N)N)NC(=O)[C@H](CC(C)C)NC(=O)[C@H](C)NC(=O)[C@H](Cc1c[nH]c2ccccc12)NC(=O)[C@H](CCC(=O)O)NC(=O)[C@H](C)NC(=O)[C@@H](NC(=O)[C@H](CO)NC(=O)[C@@H](N)CO)C(C)C)C(=O)N[C@@H](CCCNC(=N)N)C(=O)N[C@H](C(=O)NCC(=O)N[C@@H](CCC(=O)O)C(=O)N[C@@H](C)C(=O)N[C@@H](CO)C(=O)N[C@@H](CCCNC(=N)N)C(=O)NCC(=O)N[C@@H](CO)C(=O)N[C@@H](CO)C(=O)NCC(=O)N[C@@H](CCCCNC(=O)CCCC[C@@H]1SC[C@@H]2NC(=O)N[C@@H]21)C(N)=O)C(C)C [SEQ ID NO: 3, ssVAEWALRSWEGMRVGEAsr] (H-SSVAEWALRSWEGMRVGEASRGSSGK(Biotin)-NH2; N-terminus and C-terminus assumed) | GDF-7>GDF-5, BMP-2>BMP-6>BMP-5>TGF-β1, TGF-β3, or PDGF-BB | –
5 | CC(C)C[C@H](NC(=O)[C@H](C)NC(=O)[C@H](Cc1c[nH]c2ccccc12)NC(=O)CNC(=O)CNC(=O)[C@@H](NC(=O)CNC(=O)CNC(=O)[C@H](CO)NC(=O)[C@@H](N)CO)C(C)C)C(=O)N[C@@H](Cc1ccccc1)C(=O)N[C@@H](CCC(=O)O)C(=O)N[C@H](C(=O)N[C@@H](CC(C)C)C(=O)N[C@@H](CCCNC(=N)N)C(=O)NCC(=O)N[C@@H](CCCCN)C(=O)N[C@@H](CCC(=O)O)C(=O)N[C@H](C(=O)N[C@@H](CO)C(=O)N[C@@H](CCCNC(=N)N)C(=O)NCC(=O)N[C@@H](CO)C(=O)N[C@@H](CO)C(=O)NCC(=O)N[C@@H](CCCCNC(=O)CCCC[C@@H]1SC[C@@H]2NC(=O)N[C@@H]21)C(N)=O)C(C)C)[C@@H](C)O [SEQ ID NO: 2, ssGGVGGWALFETLRGKEVsr] (H-SSGGVGGWALFETLRGKEVSRGSSGK(Biotin)-NH2; N-terminus and C-terminus assumed) | GDF-7>GDF-5, BMP-2, and BMP-6>BMP-5>TGF-β1, TGF-β3, or PDGF-BB | –
